Data set [1] has as its system S. enterica pre-formed biofilm. Kind of data set: Dispersal of pre-formed biofilm in PVC wells. Format: cell-based, Salmonella enterica. The settings on record: for effect on pre-formed biofilms: detergent-like compounds mixed into cultures in PVC wells. As to the method:
(§1) Studies were done to test biofilm formation in microtitre wells. To quantify biofilm formation, typically, 10 μl of an overnight culture were used to inoculate PVC microtitre wells containing 90 μl of LB without NaCl, but with 2% glucose. The covered microtitre dish was sealed with parafilm during incubation at 30° C. Cultures were removed to determine the OD630, and the wells were rinsed with distilled water. After drying at room temperature for 15 minutes, 200 μl of crystal violet (1%) was added to the wells for 20 minutes The stained biofilms were rinsed several times with distilled water, allowed to dry at room temperature for 15 minutes, and extracted with 2×200 μl 95% ethanol. The OD550 was estimated using a Beckman DU-640B spectrophotometer, after adjusting the volume to 1 mL with distilled water.
Surfactin was added to PVC wells after the culture had reached an OD630 of approximately 0.15-0.2. When this OD was reached, the surfactants were gently mixed into the cultures in microtitre wells. Samples were harvested and either growth as determined by OD630 or biofilm levels as measured by OD550 of CV-stained material were analyzed. The OD550 of the surfactin-treated sample decreased at a faster rate than that of the untreated sample for the initial sloughing phase of BF, resulting in an approximately 85% decrease in total biofilm by the end of the experiment at 22 hours.
The detergents tested were SDS (ionic surfactant), Tween-80 ([…] surfactant), rhamnolipid (another lipopeptide surfactant) and serrawettin. Surfactin concentration in this and the rest of the studies was maintained at 100 μg in order to compare its activity to that of the biosurfactant rhamnolipid, which affected BF when it was used at higher concentrations.

Data set [2] concerns wild-type S. enterica. Kind of data set: Biofilm formation in PVC microtitre wells, crystal violet staining. Format: cell-based, Salmonella enterica. As to the method:
The ability of lipopolysaccharide (LPS) mutants to form biofilms was tested in PVC microtitre plates. The biofilm assay used monitors the ability of S. enterica to attach to the wells of the microtitre dishes. The biofilm formed at the interface between the air and liquid medium, and was quantitated by staining with crystal violet (CV) as described in the examples given below.
as §1
The swarming defect of the LPS mutants could be rescued by the addition of the surfactin isolated from Bacillus subtilis. […]

For data set [3], the system named is Salmonella typhimurium. Kind of data set: Biofilm formation in catheters, crystal violet staining. Details: key to Biofilm Formation: “++++” = efficient biofilm formation; “−” = no biofilm formation. Conditions: for inhibition of BF by S. enterica relative to surfactin: catheters, Tween 80 at 0.25%, 10 to 100 million bacterial cells. In kind it is cell-based. How it is done: (§2) To visualize biofilm formation in catheters, 10 μl of an overnight culture of S. enterica was inoculated into 500 μl of medium and injected into clear vinyl urethral catheters overnight at 30° C., with and without 100 μg surfactin. Biofilms were analyzed by staining with CV. The catheters were capped at both ends and incubated at 30° C. overnight. Media and growth conditions were as described above for PVC wells. Cultures were removed to determine the OD630, and the catheters were rinsed with distilled water. After drying at room temperature for 15 minutes, 700 μl of crystal violet (1%) was added to the catheters for 20 minutes. The stained biofilms were rinsed several times with distilled water, and allowed to dry at room temperature for 15 minutes before examination.
S. enterica was grown in clear vinyl urethral catheters. The biofilm formed by S. enterica was dispersed all along the growth surface. […] It is important to note that the same results were obtained when venous catheters made of polyurethane were tested. The data presented here relate mainly to the urethral catheters.
When the device coated is to be inserted in the body cavity, some form of surface sterilization may be necessary. Also, endogenous fluids should not wash off the surfactin coating. Studies were conducted to determine these properties of the coating (Table 1). Urethral catheters were coated with surfactin (by passing through 500 μl of a solution of 1.0 μg/μl surfactin), and 10 mL of sterile saline solution were passed through the coated catheter.
After coating urethral cathethers with surfactin, the coated catheters were subjected to treatment in an autoclave (121° C., 15 psi) for 30 minutes or baking in a 50° C. oven for 6 hours. […] Surfactin, apparently adhered to the catheters, largely inhibiting biofilm formation.
The biofilm-inhibiting properties of surfactin are not altered after storing surfactin-baked catheters (baked for one hour at 60° C.) for 5 days at room temperature (Table 2). Further, baked on surfactin is not washed off by sterile saline dripping through the catheter at 0.3 mL/minutes for 24 hours. The BF-inhibiting properties of surfactin are stable over 50 days of storage at either room temperature or at 4° C. Thus, medical devices coated with surfactin, or a substance with surfactin-like properties, may be partially sterilized by baking at 60° C., and the sterility would be maintained over a long period of time.

The subject of data set [4] is Escherichia coli. Kind of data set: Biofilm formation in urethral catheters, crystal violet staining. In kind it is cell-based. How it is done:
as §2
(§3) The most common causes of central urinary catheter and central venous catheter infections (caused by adherent bacteria), include Eschericila coli, Proteus mirabilis, and Pseudomonas aeruginosa, Klebseiella pneumoniae, Staphylococcus epidermis. The effect of surfactin on BF by some of these medically relevant organisms was tested by growth of the organism in urethral catheters (Table 3). Escherichia coli and Proteus mirabilis formed a biofilm mainly at the air liquid interface, while the biofilm formed by P. aeruginosa, like that formed by S. enterica, was dispersed all along the catheter.

Data set [5] relates to Proteus mirabilis. The description is as above. In kind it is cell-based. How it is done: as §2, §3
The subject of data set [6] is Staphylococcus epidermis. The description is as above. Format: cell-based. The settings on record: Surfactin-coated catheters. How it is done:
as §2, §3

Data set [7] relates to LPS mutants of S. enterica. Kind of data set: Rescue of swarming defect of LPS mutants. In kind it is cell-based, Salmonella enterica. The settings on record: addition of surfactin isolated from Bacillus subtilis.

Numbered stars: 1 amine (or outer) side, 2 acyl side, 3 side chain; on linkers, the order of the positions; unused ones are H or OH. Bridge positions count the residues as written; N and C are the ends. Square brackets hold non-standard residues; d marks the D form. Peptide text beside a SMILES is read from it. X1 = CC(C)CCCCCCCCC[C@H](CC(=O)[*:1])O[*:2]

Regarding `CCCCCCCCCCCCOS(=O)(=O)[O-].[Na+]` [SDS], in data set [1], the “effect on pre-formed biofilms” value is listed as “dispersed pre-formed biofilm”.
`CC(C)CCCCCCCCC[C@@H]1CC(=O)N[C@@H](CCC(=O)O)C(=O)N[C@@H](CC(C)C)C(=O)N[C@H](CC(C)C)C(=O)N[C@@H](C(C)C)C(=O)N[C@@H](CC(=O)O)C(=O)N[C@H](CC(C)C)C(=O)N[C@@H](CC(C)C)C(=O)O1` [Surfactin, surfactin] (EL[dL]VD[dL]L; linker N-C via X1): the “amount of surfactin sufficient to completely abolish BF” value in data set [2] (PVC wells pre-coated or surfactin in growth medium, overnight at 30° C.) is below 5 µg. Besides, the Bacterial growth result in data set [2] (all surfactin concentrations tested) was “unaffected”. The “decrease in total biofilm (pre-formed)” value in data set [1] (surfactin 100 μg added at OD630 0.15-0.2, end of experiment at 22 hours) was “approximately 85%”. Also, the “stability of BF-inhibiting properties on storage” value in data set [3] (50 days of storage at room temperature or at 4° C.) was “stable”. Also, the “Biofilm formation, optical density reading based on crystal violet staining” value in data set [3] (Surfactin-coated catheters) is 0.05; in data set [3] (surfactin-baked catheters (one hour at 60° C.), 5 days at room T.), 0.05; in data set [3] (surfactin-baked catheters, 24 hour saline wash (0.3 mL/minutes)) it was 0.06; in data set [4] (Surfactin-coated catheters), 0.05; in data set [5] (Surfactin-coated catheters), 0.11; in data set [6], 0.40. For the same molecule, the “Biofilm Formation” value in data set [3] (catheter treatment: Surfactin, saline wash (10 mL sterile saline)) is “++++”; in data set [3] (catheter treatment: Surfactin, the oven (50° C., 6 hours)) it was “−”; in data set [3] (urethral catheter treatment: Surfactin) it was “−”. In addition, in data set [3] (clear vinyl urethral catheters, 100 μg surfactin, overnight at 30° C.), the “formation of biofilm on the catheters” value is “eliminated the formation of biofilm”. Further, the “effect of oven treatment on biofilm inhibition by surfactin” value in data set [3] (coated catheters baked in 50° C. oven for 6 hours) was “no effect”. Besides, in data set [3] (oven treatment of surfactin coated catheters), the “resistance of baked surfactin coating to saline washing” value was “resistant to saline washing”. Besides, the “effectiveness of pre-coating catheters versus surfactin in the growth medium” value in data set [3] (surfactin solution run through catheters prior to inoculation) was “just as effective”. For the same molecule, the “inhibition of BF and growth” value in data set [4] (growth in urethral catheters) and in data set [5] (growth in urethral catheters) was “inhibited BF (but not growth)” in each case. Moreover, the “swarming defect of the LPS mutants” value in data set [7] is recorded as “rescued”.
With `CCCCCCCC/C=C\CCCCCCCC(=O)OCCOCC(OCCO)C1OCC(OCCO)C1OCCO` (centres unmarked) [Tween-80, reference compound], the “effect on pre-formed biofilms” value in data set [1] is given as “dispersed pre-formed biofilm”. The “inhibition of BF by S. enterica relative to surfactin” value in data set [3] is “as effective as surfactin”.
For the molecule rhamnolipid [reference compound], the “effect on pre-formed biofilms” value in data set [1] is reported as “dispersed pre-formed biofilm”. In addition, the “inhibition of BF by S. enterica relative to surfactin” value in data set [3] is on record as “only half as effective”.
On to serrawettin, for which, in data set [1], the “effect on pre-formed biofilms” value is reported as “dispersed pre-formed biofilm”.

Values taken from patent US20030134783A1, “Use of cyclic heptapeptides for the inhibition of biofilm formation” (priority 2001, published 2003).
